# From patent US10131652B2, “Pyrimidinyloxy benzene derivatives as herbicides” (E. I. DU PONT DE NEMOURS AND COMPANY, priority 2014, dated 2018)
# Where two headings read alike, the source gives them in different places.
# Columns and labels:
# Assay type in all cases: in vivo
# [1] = test system: rice (Oryza sativa); assay: Test D flooded paddy test plant response; details: Flood (flooded paddy test), visual rating on scale 0 to 100 (0 no effect, 100 complete control), 13 to 15 days
# Summary of the method: (§1)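 Plants at 2-leaf stage in pots flooded 3 cm above soil; compounds applied directly into paddy water, depth kept throughout. After 13-15 days in greenhouse, visual rating against controls on 0-100 scale (100 = complete control).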
# [2] = test system: barnyardgrass (Echinochloa crus-galli); assay: Test D flooded paddy test plant response; details: Flood (flooded paddy test), visual rating on scale 0 to 100 (0 no effect, 100 complete control), 13 to 15 days
# Summary of the method: as §1
# [3] = test system: ducksalad (Heteranthera limosa); assay: Test D flooded paddy test plant response; details: Flood (flooded paddy test), visual rating on scale 0 to 100 (0 no effect, 100 complete control), 13 to 15 days
# Summary of the method: as §1
# [4] = test system: small-flower umbrella sedge (Cyperus difformis); assay: Test D flooded paddy test plant response; details: Flood (flooded paddy test), visual rating on scale 0 to 100 (0 no effect, 100 complete control), 13 to 15 days
# Summary of the method: as §1
# [5] = test system: johnsongrass (Sorghum halepense); assay: Test F pre-/postemergence plant response; details: Sorghum halepense, pre-emergence, scale 0 to 100, read-out: Plant response rating, Johnsongrass
# Summary of the method: (§2)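 Two application timings were run side by side: soil surface treatment of freshly planted seed in silt loam, and foliar treatment of seedlings 2 to 18 cm high. Plants stayed in the greenhouse 14 to 21 days before visual 0–100 injury scoring against controls.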
# [6] = test system: barnyardgrass (Echinochloa crus-galli); assay: Test F pre-/postemergence plant response; details: Echinochloa crus-galli, scale 0 to 100, read-out: Plant response rating, Barnyardgrass
# Summary of the method: as §2
# [7] = test system: sandbur (southern sandbur, Cenchrus echinatus); assay: Test F pre-/postemergence plant response; details: Cenchrus echinatus, scale 0 to 100, read-out: Plant response rating, Sandbur
# Summary of the method: as §2
# [8] = test system: giant foxtail (Setaria faberii); assay: Test F pre-/postemergence plant response; details: Setaria faberi, pre-emergence, scale 0 to 100, read-out: Plant response rating, Foxtail, Giant
# Summary of the method: as §2
# [9] = test system: palmer pigweed (Amaranthus palmeri); assay: Test F pre-/postemergence plant response; details: Amaranthus palmeri, scale 0 to 100, read-out: Plant response rating, Pigweed, Palmer
# Summary of the method: as §2
# [10] = test system: lambsquarters (Chenopodium album); assay: Test F pre-/postemergence plant response; details: Chenopodium album, pre-emergence, Preemergence, scale 0 to 100, read-out: Plant response rating, Lambsquarters
# Summary of the method: as §2
# [11] = test system: morningglory (Ipomoea coccinea); assay: Test F pre-/postemergence plant response; details: Ipomoea, pre-emergence, scale 0 to 100, read-out: Plant response rating, Morningglory
# Summary of the method: as §2
# [12] = test system: waterhemp (common waterhemp, Amaranthus rudis); assay: Test F pre-/postemergence plant response; details: Amaranthus tuberculatus, scale 0 to 100, read-out: Plant response rating, Waterhemp
# Summary of the method: as §2
# [13] = test system: green foxtail (Setaria viridis); assay: Test F pre-/postemergence plant response; details: Setaria viridis, pre-emergence, Preemergence, scale 0 to 100, read-out: Plant response rating, Foxtail, Green
# Summary of the method: as §2
# [14] = test system: arrowleaf sida (Sida rhombifolia); assay: Test F pre-/postemergence plant response; details: Sida rhombifolia, scale 0 to 100, read-out: Plant response rating, Arrowleaf Sida
# Summary of the method: as §2
# [15] = test system: dayflower (Virginia (VA) dayflower, Commelina virginica); assay: Test F pre-/postemergence plant response; details: Commelina virginica, scale 0 to 100, read-out: Plant response rating, Dayflower, VA
# Summary of the method: as §2
# [16] = post-emergence, 16 g ai/ha Postemergence
# [17] = post-emergence, 31 g ai/ha Postemergence
# [18] = post-emergence, 62 g ai/ha Postemergence
# [19] = post-emergence, 125 g ai/ha Postemergence
# [20] = pre-emergence, 16 g ai/ha Preemergence
# [21] = pre-emergence, 31 g ai/ha Preemergence
# [22] = pre-emergence, 62 g ai/ha Preemergence
# [23] = pre-emergence, 125 g ai/ha Preemergence
structure (smiles),measurement,setting,value
"Fc1cccc(Oc2ncc(Cl)cn2)c1-c1cc(C(F)F)no1 [Compound 144, 5-chloro-2-[2-[3-(difluoromethyl)-5-isoxazolyl]-3-fluorophenoxy]pyrimidine]","Plant response rating, Rice",[1]; 31 g ai/ha,0
same,"Plant response rating, Rice",[1]; 62 g ai/ha,15
same,"Plant response rating, Rice",[1]; 125 g ai/ha,25
same,"Plant response rating, Rice",[1]; 250 g ai/ha,40
same,"Plant response rating, Barnyardgrass",[2]; 31 g ai/ha,0
same,"Plant response rating, Barnyardgrass",[2]; 62 g ai/ha,0
same,"Plant response rating, Barnyardgrass",[2]; 125 g ai/ha,15
same,"Plant response rating, Barnyardgrass",[2]; 250 g ai/ha,35
same,"Plant response rating, Ducksalad",[3]; 31 g ai/ha,75
same,"Plant response rating, Ducksalad",[3]; 62 g ai/ha,85
same,"Plant response rating, Ducksalad",[3]; 125 g ai/ha,90
same,"Plant response rating, Ducksalad",[3]; 250 g ai/ha,100
same,"Plant response rating, Sedge, Umbrella",[4]; 31 g ai/ha,65
same,"Plant response rating, Sedge, Umbrella",[4]; 62 g ai/ha,80
same,"Plant response rating, Sedge, Umbrella",[4]; 125 g ai/ha,95
same,"Plant response rating, Sedge, Umbrella",[4]; 250 g ai/ha,95
same,pest or weed control at 16 g/ha,[5]; 16 g ai/ha Preemergence,0%
same,pest or weed control at 31 g/ha,[5]; 31 g ai/ha Preemergence,0%
same,pest or weed control at 125 g/ha,[5]; 125 g ai/ha Preemergence,70%
same,pest or weed control at 62 g/ha,[5]; Preemergence,30%
same,pest or weed control at 16 g/ha,[6]; [16],10%
same,pest or weed control at 31 g/ha,[6]; [17],30%
same,pest or weed control at 62 g/ha,[6]; [18],50%
same,pest or weed control at 125 g/ha,[6]; [19],75%
same,pest or weed control at 16 g/ha,[6]; [20],0%
same,pest or weed control at 31 g/ha,[6]; [21],20%
same,pest or weed control at 62 g/ha,[6]; [22],70%
same,pest or weed control at 125 g/ha,[6]; [23],100%
same,pest or weed control at 16 g/ha,[7]; [16],10%
same,pest or weed control at 31 g/ha,[7]; [17],15%
same,pest or weed control at 62 g/ha,[7]; [18],20%
same,pest or weed control at 125 g/ha,[7]; [19],20%
same,pest or weed control at 16 g/ha,[7]; [20],0%
same,pest or weed control at 31 g/ha,[7]; [21],10%
same,pest or weed control at 125 g/ha,[7]; [23],95%
same,pest or weed control at 62 g/ha,"[7]; pre-emergence, Preemergence",50%
same,pest or weed control at 16 g/ha,[8]; 16 g ai/ha Preemergence,15%
same,pest or weed control at 31 g/ha,[8]; 31 g ai/ha Preemergence,90%
same,pest or weed control at 62 g/ha,[8]; 62 g ai/ha Preemergence,95%
same,pest or weed control at 125 g/ha,[8]; 125 g ai/ha Preemergence,100%
same,pest or weed control at 16 g/ha,[9]; [16],90%
same,pest or weed control at 31 g/ha,[9]; [17],100%
same,pest or weed control at 62 g/ha,[9]; [18],100%
same,pest or weed control at 125 g/ha,[9]; [19],100%
same,pest or weed control at 16 g/ha,[9]; [20],100%
same,pest or weed control at 31 g/ha,[9]; [21],100%
same,pest or weed control at 125 g/ha,[9]; [23],100%
same,pest or weed control at 62 g/ha,"[9]; pre-emergence, Preemergence",100%
same,pest or weed control at 16 g/ha,[10]; 16 g ai/ha,100%
same,pest or weed control at 31 g/ha,[10]; 31 g ai/ha,100%
same,pest or weed control at 125 g/ha,[10]; 125 g ai/ha,100%
same,pest or weed control at 62 g/ha,[10],100%
same,pest or weed control at 16 g/ha,[11]; 16 g ai/ha Preemergence,0%
same,pest or weed control at 31 g/ha,[11]; 31 g ai/ha Preemergence,0%
same,pest or weed control at 125 g/ha,[11]; 125 g ai/ha Preemergence,95%
same,pest or weed control at 62 g/ha,[11]; Preemergence,65%
same,pest or weed control at 16 g/ha,[12]; [16],100%
same,pest or weed control at 31 g/ha,[12]; [17],100%
same,pest or weed control at 62 g/ha,[12]; [18],100%
same,pest or weed control at 125 g/ha,[12]; [19],100%
same,pest or weed control at 16 g/ha,[12]; [20],98%
same,pest or weed control at 31 g/ha,[12]; [21],100%
same,pest or weed control at 125 g/ha,[12]; [23],100%
same,pest or weed control at 62 g/ha,"[12]; pre-emergence, Preemergence",100%
same,pest or weed control at 16 g/ha,[13]; 16 g ai/ha,25%
same,pest or weed control at 31 g/ha,[13]; 31 g ai/ha,95%
same,pest or weed control at 125 g/ha,[13]; 125 g ai/ha,100%
same,pest or weed control at 62 g/ha,[13],98%
same,pest or weed control at 16 g/ha,[14]; [16],100%
same,pest or weed control at 31 g/ha,[14]; [17],100%
same,pest or weed control at 62 g/ha,[14]; [18],100%
same,pest or weed control at 125 g/ha,[14]; [19],100%
same,pest or weed control at 16 g/ha,[14]; [20],95%
same,pest or weed control at 31 g/ha,[14]; [21],100%
same,pest or weed control at 62 g/ha,[14]; [22],100%
same,pest or weed control at 125 g/ha,[14]; [23],100%
same,pest or weed control at 16 g/ha,[15]; [16],50%
same,pest or weed control at 31 g/ha,[15]; [17],50%
same,pest or weed control at 62 g/ha,[15]; [18],60%
same,pest or weed control at 125 g/ha,[15]; [19],85%
same,pest or weed control at 16 g/ha,[15]; [20],0%
same,pest or weed control at 31 g/ha,[15]; [21],30%
same,pest or weed control at 62 g/ha,[15]; [22],85%
same,pest or weed control at 125 g/ha,[15]; [23],95%
